Measured values: PubChem BioAssay (NCI)
Where “and” joins values, the source holds several entries; their conditions need not be identical. Identical values can stand only once.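 Five compound concentrations were applied to cells in 96-well plates for 48 hours; endpoints were derived by simple linear interpolation of the resulting dose-response curve. At the GI50, growth is halved. TGI: concentration producing complete growth inhibition.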

Experiments:
Experiment in all cases: growth of human tumour cells (NCI), 48 h
786-0 renal = tested on: 786-0 renal
BT-549 breast = tested on: BT-549 breast
CAKI-1 renal = tested on: CAKI-1 renal
KM12 colon = tested on: KM12 colon
M14 melanoma = tested on: M14 melanoma
MALME-3M melanoma = tested on: MALME-3M melanoma
NCI-H460 lung = tested on: NCI-H460 lung
OVCAR-8 ovarian = tested on: OVCAR-8 ovarian
SF-295 CNS = tested on: SF-295 CNS
UACC-62 melanoma = tested on: UACC-62 melanoma

| Compound | GI50 (786-0 renal) | TGI (786-0 renal) | GI50 (BT-549 breast) [µM] | TGI (BT-549 breast) [µM] | GI50 (CAKI-1 renal) | TGI (CAKI-1 renal) | GI50 (KM12 colon) | TGI (KM12 colon) | GI50 (M14 melanoma) [µM] | TGI (M14 melanoma) | GI50 (MALME-3M melanoma) [µM] | TGI (MALME-3M melanoma) | GI50 (NCI-H460 lung) [µM] | TGI (NCI-H460 lung) | GI50 (OVCAR-8 ovarian) | TGI (OVCAR-8 ovarian) | GI50 (SF-295 CNS) | TGI (SF-295 CNS) | GI50 (UACC-62 melanoma) [µM] | TGI (UACC-62 melanoma) |
| --- | --- | --- | --- | --- | --- | --- | --- | --- | --- | --- | --- | --- | --- | --- | --- | --- | --- | --- | --- | --- |
| Cc1[nH]c(-c2nc3ccccc3[nH]2)c(C)c1C(=O)NC(C)C1CCCCC1 (centres undefined) | 14.8 µM | 32.2 µM | 10.7 | 23.2 | 10.4 µM | 22.2 µM | 10.2 µM | 22.8 µM | 3.28 | 17.8 µM | 5.68 | 22.5 µM | 14.4 | 32 µM | 16.5 µM | 39.5 µM | 4.8 µM | 16.8 µM | 6.95 | 21.6 µM |
| O=C(O)CCc1c2ccc(=O)c(O)c-2oc2c(O)c(O)ccc12 | – | > 100 µM | – | > 100 | – | > 100 µM | – | > 100 µM | – | > 100 µM | – | > 100 µM | – | > 100 µM | – | > 100 µM | – | 82.5 µM | – | > 100 µM |
| Cc1ccc(C2=C(c3ccccc3)C(c3ccccc3)Oc3ccc(C)cc32)cc1 (centres undefined) | 2.17 µM | 4.74 µM | 4.76 | 20.4 | 12.7 µM | 31.4 µM | 5.5 µM | 23.6 µM | 1.56 | 3.05 µM | 23.1 | 48.3 µM | 7.1 | 39.9 µM | 6.92 µM | 26.7 µM | 3.66 µM | 13.8 µM | 10 | 22.8 µM |
| O=C1C(=O)c2ccccc2C(O)=C1CCCc1ccc(C2CCCCCC2)cc1 | 0.465 µM | 17 µM | 1.14 | 19.5 | 0.432 µM | 26 µM | 0.903 µM | 17.2 µM | 1.86 | 21 µM | 0.816 | 22.6 µM | 0.361 | 13.4 µM | 1.62 µM | 41.7 µM | 0.558 µM | 30.2 µM | 0.718 | 21.2 µM |
| CC(C)n1nc(-c2ccc3oc(N)nc3c2)c2c(N)ncnc21 | 0.0146 µM and 0.0266 µM | 0.4 µM and 1.41 µM | < 0.01 | – | < 0.0157 µM and 0.0161 µM | 0.725 µM and 0.265 µM | 0.0222 µM and 0.0179 µM | 5.01 µM and 2.24 µM | < 0.01 | 0.522 µM and 0.678 µM | < 0.01 | < 0.01 µM and 0.022 µM | < 0.01 | 36.3 µM and 16.8 µM | 0.0246 µM and 0.0218 µM | 1.24 µM and 0.506 µM | < 0.01 µM and 0.0102 µM | 0.0472 µM and 0.0773 µM | < 0.01 | 0.0317 µM and 0.049 µM |
| NC(N)=Nc1nc2ccc([N+](=O)[O-])cc2[nH]1 | – | > 100 µM | – | > 100 | – | > 100 µM | – | > 100 µM | – | > 100 µM | – | > 100 µM | – | > 100 µM | – | > 100 µM | – | > 100 µM | – | > 100 µM |
| CCOC(=O)c1oc2ccc([N+](=O)[O-])c3c2c1CCC3 | – | 84.9 µM | – | > 93 | – | > 77.5 µM | – | > 100 µM | – | > 100 µM | – | > 100 µM | – | > 100 µM | – | > 100 µM | – | 53.9 µM | – | > 54.8 µM |
| c1cncc(C2Nc3cccc4cccc(c34)N2)c1 | > 100 µM | > 100 µM | 29.5 | 95 | 48.7 µM | > 100 µM | 30.8 µM | 97.7 µM | 46 | > 100 µM | 25.6 | 57.7 µM | > 100 | > 100 µM | 20 µM | 48.6 µM | 49.7 µM | > 100 µM | 38.7 | > 100 µM |
| Cc1[nH]nc2c1N=C(c1ccccc1F)c1cc(C(N)=O)ccc1N2 | 2.82 µM | > 25 µM | 2.9 | 12.8 | 3.83 µM | > 19.7 µM | 1.32 µM | > 16.3 µM | 7.86 | > 25 µM | 18.3 | > 25 µM | 3.33 | > 25 µM | 5.77 µM | > 25 µM | 1.28 µM | 24.9 µM | 4.11 | 9.17 µM |
| CCc1cc2ncc(CN3CCN(c4ccc(C(=O)NC)nc4)CC3)cc2[nH]c1=O | 79.6 µM | > 100 µM | 25.9 | > 100 | 24.2 µM | > 100 µM | > 100 µM | > 100 µM | 92.4 | > 100 µM | > 100 | > 100 µM | 33.5 | > 100 µM | > 100 µM | > 100 µM | 56.7 µM | > 100 µM | 39.2 | > 100 µM |
| CN1CCN(Cc2ccc(NC(=O)c3cncc(C#Cc4cncc5nccnc45)c3)cc2C(F)(F)F)CC1 | 5.31 µM | 12.5 µM | 5.27 | 11.2 | 2.18 µM | 9.09 µM | 0.136 µM | 6.88 µM | 0.83 | 4.33 µM | 0.231 | 1.3 µM | 2.21 | 8.46 µM | 3.71 µM | 24.1 µM | 7.05 µM | 14.4 µM | 1.55 | 7.21 µM |
| COC(=O)/C=C1/SC(N2N=C(c3cccs3)CC2c2ccc(F)cc2)=NC1=O (centres undefined) | 3.12 µM | 8.61 µM | 3.21 | 8.09 | 2.82 µM | 10.2 µM | 1.92 µM | 3.78 µM | 2.25 | 5.17 µM | 2.44 | 8.51 µM | 2.19 | 4.93 µM | 2.59 µM | 7.66 µM | 3.24 µM | 13.5 µM | 1.58 | 3.74 µM |
| COc1cc(C2C3=C(COC3=O)Nc3c2ccc2c3CCCC2)cc2c1OCO2 (centres undefined) | 0.0757 µM | 14.4 µM | 0.118 | 30.5 | 0.0775 µM | > 100 µM | 0.0356 µM | 0.412 µM | 0.033 | 67.4 µM | 81.5 | > 100 µM | 0.0353 | 15.7 µM | 0.045 µM | 20.2 µM | 0.0323 µM | 35.5 µM | 0.0462 | > 100 µM |
